The test system of the data set is tropical house mosquito Culex quinquefasciatus (adults, 3 days old). In words: Efficacy of formulations on surfaces (glazed/unglazed tiles, plywood), ten 3 day old mosquitoes, 3 min exposure. The class given is in vivo. As for the experimental part:
The ingredients were diluted in acetone to give a concentration which corresponds to the desired quantity of a.i./m^2. A 1 ml quantity of the solution was applied by pipette onto the 15 cm×15 cm surfaces without treating the outer edge of 1 cm.
Ten 3 day old Culex quinquefasciatus mosquitoes were exposed to each treatment for 3 minutes under a perforated petri dish, and then a clean untreated white paper index card was moved between treated surface and petri dish. A water-soaked cotton pad was applied immediately after.
Each test consisted of three replicates (three batches of ten mosquitoes were exposed for three minutes to the same surface, each one hour later), of which the mean values are calculated.
The test insects were Culex quinquefasciatus (adults, 3 days old). The compositions were evaluated for their ability to provide effective knock down after 3, 9, 15, and 30 minutes, 1, 2, 3, 4 and 24 hours (mortality). The experiments were performed in triplicate on glazed tile, but not repeated on wood.
Test Insects are Culex quinquefasciatus (adults, 3 days old). The Application provides the technical compounds were dissolved in acetone and applied as 1 ml solutions onto glazed tiles (15 cm×15 cm). An evaluation is provided at knock down after 3, 9, 15, and 30 minutes, 1, 2, 3, 4 and 24 hours (mortality). There are 3 replicates.
Test Insects: Culex quinquefasciatus (adults, 3 days old)
Application: The technical compounds were dissolved in acetone and applied as 1 ml solutions onto glazed tiles (15 cm×15 cm).
Evaluation: Knock down after 3, 9, 15, and 30 minutes, 1, 2, 3, 4 and 24 hours (mortality) […]
Application: The active ingredients were applied as 1 ml acetone solutions onto glazed tiles (15 cm×15 cm) […]
For the mosquitoes, the USDA Petri Dish Method is used. Ten 3 day old Culex quinquefasciatus mosquitoes are exposed to each treatment for 3 minutes under a perforated petri dish and then a clean untreated white paper index card is moved between treated surface and petri dish. A water-soaked cotton pad is applied immediately after. […]

[1] abbreviates: 3′, in acetone on glazed tiles, Table 84.
Where [2] appears, read: 9′, in acetone on glazed tiles, Table 84.
[3] abbreviates: 15′, in acetone on glazed tiles, Table 84.
The mark [4] stands for this setting: 30′, in acetone on glazed tiles, Table 84.
[5] abbreviates: 1 h, in acetone on glazed tiles, Table 84.
Setting [6] is: 2 h, in acetone on glazed tiles, Table 84.
The mark [7] stands for this setting: 3 h, in acetone on glazed tiles, Table 84.
The mark [8] stands for this setting: 4 h, in acetone on glazed tiles, Table 84.
Where [9] appears, read: 24 h (mortality), in acetone on glazed tiles, Table 84.

The source of these data is US9028856B2, “Synergistic pesticide compositions” (priority 2008, dated 2015).

Take `CC1(C)CC(O)CC(C)(C)N1`: the “% KD and Mortality” value reads like this: under setting [1], 0%; under setting [2], 0%; under setting [3], 0%; under setting [4], 0%; under setting [5], 0%; under setting [6], 0%. Also, the “% KD and Mortality” value is, setting by setting: under setting [7], 0%; under setting [8], 0%; under setting [9], 3%.

As to `CC1(C)CC(O)CC(C)(C)N1[O]`, the “% KD and Mortality” value reads like this: under setting [1], 0%; under setting [2], 0%; under setting [3], 0%; under setting [4], 0%; under setting [5], 0%; under setting [6], 0%. Moreover, the “% KD and Mortality” value by setting is: under setting [7], 0%; under setting [8], 0%; under setting [9], 7%.

As to `CCCCCCCCON1C(C)(C)CC(OC(=O)CCCCCCCCC(=O)OC2CC(C)(C)N(OCCCCCCCC)C(C)(C)C2)CC1(C)C`, the “% KD and Mortality” value by setting is: under setting [1], 3%; under setting [2], 3%; under setting [3], 3%; under setting [4], 3%; under setting [5], 3%; under setting [6], 3%. The “% KD and Mortality” value by setting is: under setting [7], 3%; under setting [8], 3%; under setting [9], 7%.

With `CC1(C)CC(OC(=O)CCCCCCCCC(=O)OC2CC(C)(C)NC(C)(C)C2)CC(C)(C)N1`, the “% KD and Mortality” value is recorded as 0% under setting [1]; 0% under setting [2]; 0% under setting [3]; 0% under setting [4]; 3% under setting [5]; 0% under setting [6]. In addition, the “% KD and Mortality” value runs as follows: under setting [7], 3%; under setting [8], 3%; under setting [9], 17%.

On to `O=C(CCCCCCCCC(=O)ON1C(=O)CCC1=O)ON1C(=O)CCC1=O`, for which the “% KD and Mortality” value by setting is: under setting [1], 0%; under setting [2], 0%; under setting [3], 0%; under setting [4], 0%; under setting [5], 0%; under setting [6], 0%. In addition, the “% KD and Mortality” value by setting is: under setting [7], 0%; under setting [8], 0%; under setting [9], 0%.

With `CNC(=O)Oc1cccc2c1OC(C)(C)O2` [0.1% bendiocarb], the “% KD and Mortality” value under setting [1] amounted to 0%; the “% KD and Mortality” value (3′, solvent 2006-009114 (EC formulation), glazed tiles, Table 83) came to 10%; the “% KD and Mortality” value (3′, solvent Acetone + 0.05% citric acid, glazed tiles, Table 83) was found to be 13%; the “% KD and Mortality” value (3′, solvent Acetone, glazed tiles, Table 83) is listed as 3%; the “% KD and Mortality” value (3′, solvent Ethylacetate, glazed tiles, Table 83) amounted to 0%; the “% KD and Mortality” value (3′, solvent Methanol, glazed tiles, Table 83) turned out to be 0%. For the same compound, the “% KD and Mortality” value runs as follows: under setting [2], 0%; (9′, solvent 2006-009114 (EC formulation), glazed tiles, Table 83) 17%; (9′, solvent Acetone + 0.05% citric acid, glazed tiles, Table 83) 33%; (9′, solvent Acetone, glazed tiles, Table 83) 3%; (9′, solvent Ethylacetate, glazed tiles, Table 83) 3%; (9′, solvent Methanol, glazed tiles, Table 83) 0%. Also, the “% KD and Mortality” value by setting is: under setting [3], 3%; (15′, solvent 2006-009114 (EC formulation), glazed tiles, Table 83) 23%; (15′, solvent Acetone + 0.05% citric acid, glazed tiles, Table 83) 70%; (15′, solvent Acetone, glazed tiles, Table 83) 3%; (15′, solvent Ethylacetate, glazed tiles, Table 83) 7%; (15′, solvent Methanol, glazed tiles, Table 83) 0%. Further, the “% KD and Mortality” value by setting is: under setting [4], 17%; (30′, solvent 2006-009114 (EC formulation), glazed tiles, Table 83) 27%; (30′, solvent Acetone + 0.05% citric acid, glazed tiles, Table 83) 97%; (30′, solvent Acetone, glazed tiles, Table 83) 13%; (30′, solvent Ethylacetate, glazed tiles, Table 83) 27%; (30′, solvent Methanol, glazed tiles, Table 83) 13%. In addition, the “% KD and Mortality” value is, setting by setting: under setting [5], 50%; (1 h, solvent 2006-009114 (EC formulation), glazed tiles, Table 83) 43%; (1 h, solvent Acetone + 0.05% citric acid, glazed tiles, Table 83) 97%; (1 h, solvent Acetone, glazed tiles, Table 83) 77%; (1 h, solvent Ethylacetate, glazed tiles, Table 83) 50%; (1 h, solvent Methanol, glazed tiles, Table 83) 57%. Also, the “% KD and Mortality” value is, setting by setting: under setting [6], 73%; (2 h, solvent 2006-009114 (EC formulation), glazed tiles, Table 83) 87%; (2 h, solvent Acetone + 0.05% citric acid, glazed tiles, Table 83) 97%; (2 h, solvent Acetone, glazed tiles, Table 83) 100%; (2 h, solvent Ethylacetate, glazed tiles, Table 83) 73%; (2 h, solvent Methanol, glazed tiles, Table 83) 73%. Besides, the “% KD and Mortality” value is, setting by setting: under setting [7], 80%; (3 h, solvent 2006-009114 (EC formulation), glazed tiles, Table 83) 93%; (3 h, solvent Acetone + 0.05% citric acid, glazed tiles, Table 83) 100%; (3 h, solvent Acetone, glazed tiles, Table 83) 100%; (3 h, solvent Ethylacetate, glazed tiles, Table 83) 70%; (3 h, solvent Methanol, glazed tiles, Table 83) 73%. Moreover, the “% KD and Mortality” value is, setting by setting: under setting [8], 90%; (4 h, solvent 2006-009114 (EC formulation), glazed tiles, Table 83) 97%; (4 h, solvent Acetone + 0.05% citric acid, glazed tiles, Table 83) 100%; (4 h, solvent Acetone, glazed tiles, Table 83) 100%; (4 h, solvent Ethylacetate, glazed tiles, Table 83) 80%; (4 h, solvent Methanol, glazed tiles, Table 83) 73%. Moreover, the “% KD and Mortality” value under setting [9] worked out at 100%; the “% KD and Mortality” value (24 h (mortality), solvent 2006-009114 (EC formulation), glazed tiles, Table 83) was 97%; the “% KD and Mortality” value (24 h (mortality), solvent Acetone + 0.05% citric acid, glazed tiles, Table 83) was found to be 100%; the “% KD and Mortality” value (24 h (mortality), solvent Acetone, glazed tiles, Table 83) was determined as 100%; the “% KD and Mortality” value (24 h (mortality), solvent Ethylacetate, glazed tiles, Table 83) came to 80%; the “% KD and Mortality” value (24 h (mortality), solvent Methanol, glazed tiles, Table 83) came out at 87%.

For `CN1C(C)(C)CC(O)CC1(C)C` [1% 1,2,2,6,6-Pentamethyl-4-piperidinol], the “% KD and Mortality” value runs as follows: under setting [1], 0%; under setting [2], 0%; under setting [3], 0%; under setting [4], 0%; under setting [5], 0%; under setting [6], 0%. In addition, the “% KD and Mortality” value is, setting by setting: under setting [7], 0%; under setting [8], 0%; under setting [9], 0%.

As for `COC(=O)CCCCCCCCC(=O)OC` [1% Dimethyl sebacate], the “% KD and Mortality” value is, setting by setting: under setting [1], 0%; under setting [2], 0%; under setting [3], 0%; under setting [4], 0%; under setting [5], 0%; under setting [6], 0%. The “% KD and Mortality” value runs as follows: under setting [7], 0%; under setting [8], 0%; under setting [9], 0%.

As for `O=C(CCCCCCCCC(=O)OCc1ccccc1)OCc1ccccc1` [1% Sebacic acid dibenzyl ester], the “% KD and Mortality” value is, setting by setting: under setting [1], 0%; under setting [2], 0%; under setting [3], 0%; under setting [4], 0%; under setting [5], 0%; under setting [6], 0%. Besides, the “% KD and Mortality” value amounted to 3% under setting [7], 3% under setting [8] and 7% under setting [9].

As for `O=C(O)CCCCCCCCC(=O)O` [1% Sebacic acid], the “% KD and Mortality” value was 3% under setting [1]; 3% under setting [2]; 3% under setting [3]; 3% under setting [4]; 3% under setting [5]; 3% under setting [6]. In addition, the “% KD and Mortality” value reads like this: under setting [7], 3%; under setting [8], 3%; under setting [9], 13%.
